Results taken from US11903929B2, “Method for inhibiting dengue virus infection” (FLORIDA STATE UNIVERSITY RESEARCH FOUNDATION, INC., priority 2018, dated 2024).
Like-named read-outs stand apart in the source and are kept apart here. Where a SMILES comes first, the peptide text is derived from it. [ ]: non-standard residue; d: D form. ξ: configuration not given here. ξLac(3-iPr) = CC(C)CC(O)C(=O)O; NMeV = CN[CH](C(=O)O)C(C)C; NMeA = CN[CH](C)C(=O)O; βAla = NCCC(=O)O

Legend:
dengue virus = assay: Western blot analysis of viral protein levels in dengue virus-infected cells; assay type: cell-based
Experimental: These 19 compounds were further validated for antiviral activity by a Zika viral production assay and also by analyzing protein production via Western blot in dengue virus-infected cells. Human glioblastoma cells were treated with individual compounds for 1 hour prior to infection with Zika virus or dengue virus for 24 hours. After 24 hours, cellular lysate was harvested for Western blot analysis of viral protein levels (DENV infection), or supernatant collected and used to infect Vero cells in an infectious viral titer assay (ZIKV infection).

Zika virus = assay: Zika viral production assay (infectious viral titer assay on Vero cells); assay type: cell-based; conditions: read-out: Anti-ZIKV activity IC50
[1] = 1 uM, SNB-19 human glioblastoma cells, compound 1 hour prior to infection, 24 hours infection, Western blot of viral protein
[2] = 10 uM, SNB-19 human glioblastoma cells, compound 1 hour prior to infection, 24 hours infection, Western blot of viral protein
[3] = Zika virus, human glioblastoma cells treated 1 hour prior to infection, 24 hours, supernatant titered on Vero cells, values in E-notation, unit inferred
[4] = Zika virus, human glioblastoma cells treated 1 hour prior to infection, 24 hours, supernatant titered on Vero cells, μM

Row | SMILES | Anti-DENV Activity at 1 uM (SNB-19 cells) (dengue virus; [1]) | Anti-DENV Activity at 10 uM (SNB-19 cells) (dengue virus; [2]) | IC50 (Zika virus; [3]) | further results
1 | O=c1nc[nH]c2c1ccn2C1OC(CO)C(O)C1O (centres unmarked) [NCGC00246910-02, 7-(3,4-dihydroxy-5-(hydroxymethyl)tetrahydrofuran-2-yl)-1,7-dihydro-4H-pyrrolo[2,3-d]pyrimidin-4-one] | No | Yes | 0.27 µM | –
2 | CCOC(=O)c1ccc(N2C(=O)c3[nH]nc(-c4ccco4)c3C2c2ccc(C)cc2)cc1 (centres unmarked) [NCGC00108581-01, ethyl 4-(3-(furan-2-yl)-6-oxo-4-(p-tolyl)-4,6-dihydropyrrolo[3,4-c]pyrazol-5(1H)-yl)benzoate] | No | Yes | 2.42 µM | –
3 | COCCn1c(=O)[nH]c2cc(C(=O)NCc3ccccc3Cl)ccc2c1=O [NCGC00104879-01, N-(2-chlorobenzyl)-3-(2-methoxyethyl)-2,4-dioxo-1,2,3,4-tetrahydroquinazoline-7-carboxamide] | No | No | – | IC50 (Zika virus; [4]): > 30 µM
4 | COC(=O)c1cc2occc2n1Cc1nc(-c2ccc(C)cc2)oc1C [NCGC00113159-01, methyl 4-[[5-methyl-2-(4-methylphenyl)-1,3-oxazol-4-yl]methyl]furo[3,2-b]pyrrole-5 - carboxylate] | No | No | – | IC50 (Zika virus; [4]): > 30 µM
5 | CC1=Nc2cc(C(=O)NCc3ccccc3Cl)ccc2Sc2c(C)ccc(C)c21 [NCGC00112058-01, N-(2-chlorobenzyl)-1,4,11-trimethyldibenzo[b,f][1,4]thiazepine-8-carboxamide] | No | No | – | IC50 (Zika virus; [4]): > 30 µM
6 | CCC(C)C1NC(=O)C2CCCN2C(=O)C(CC(C)C)OC(=O)CCNC(=O)C(C)N(C)C(=O)C(C(C)C)N(C)C1=O (centres unmarked) [NCGC00169957-03, 3-(sec-butyl)-16-isobutyl-6-isopropyl-5,8,9-trimethyldodecahydropyrrolo[1,2-d][l]oxa[4,7,10,13,16] pentaazacyclononadecine-1,4,7,10,14,17(11H,16H)-hexaone] (cyclo([ξLac(3-iPr)]PI[NMeV][NMeA][βAla]); configuration not given here) | – | – | – | Anti-DENV Activity at 1 uM (SNB-19 cells) (dengue virus; 1 uM): No; Anti-DENV Activity at 10 uM (SNB-19 cells) (dengue virus; 10 uM): Yes; IC50 (Zika virus; Zika virus, Vero): 0.613 µM
7 | CC(=O)OC[C@]12CCC(C)=C[C@H]1O[C@@H]1[C@H](O)[C@@H](OC(C)=O)[C@@]2(C)[C@]12CO2 [NCGC00179895-03, ((2S,2′R,3′R,4′S,5′S,5a′R,9a′R)-4′-acetoxy-3′-hydroxy-5′,8′-dimethyl-2′,3′,4′,5′,7′,9a′-hexahydrospiro[oxirane-2,10′-[2,5]methanobenzo[b]oxepin]-5a′(6′H) - yl)methyl acetate] | – | – | – | Anti-DENV Activity at 1 uM (SNB-19 cells) (dengue virus): Yes; Anti-DENV Activity at 10 uM (SNB-19 cells) (dengue virus): Yes
8 | COc1cc(C2CC(=O)Nc3cc4c(cc32)OCCO4)cc(Br)c1OC (centres unmarked) [NCGC00107055-01, 9-(3-bromo-4,5-dimethoxyphenyl)-2,3,8,9-tetrahydro-[1,4]dioxino[2,3-g]quinolin-7(6H)-one] | No | No | 0.0285 µM | –
9 | COc1cc2c(c(OC)c1OC)-c1ccc(OC)c(=O)cc1[C@@H](NC(C)=O)CC2 [NCGC00025125-18, N-[(7S)-1,2,3,10-tetramethoxy-9-oxo-6,7-dihydro-5H-benzo[a]heptalen-7-yl]acetamide] | No | No | – | –
10 | O=C(Nc1cccnc1)c1cccs1 [NCGC00072088-02, N-(pyridin-3-yl)thiophene-2-carboxamide] | No | Yes | 2.35 µM | –
11 | O=c1[nH]c(=O)n(C2C[C@@H](O)[C@@H](CO)O2)cc1F (stereo partly drawn) [NCGC00263862-02, 5-fluoro-l-((4R,5R)-4-hydroxy-5-(hydroxymethyl)tetrahydrofuran-2-yl)pyrimidine-2,4(1H,3H)-dione] | No | No | 0.0165 µM | –
12 | CC(=O)OC[C@]12C[C@H](OC(=O)CC(C)C)C(C)=C[C@H]1O[C@@H]1[C@H](O)[C@@H](OC(C)=O)[C@@]2(C)[C@]12CO2 [NCGC00387651-01, (2S,2′R,3′R,4′S,5′S,5a′R,7′S,9a′R)-4′-acetoxy-5a′-(acetoxymethyl)-3′-hydroxy-5′,8′-dimethyl-2′,3′,4′,5′,5a′,6′,7′,9a′-octahydrospiro[oxirane-2,10′-[2,5]methanobenzo[b]oxepin]-7′-yl 3 - methylbutanoate] | – | – | – | Anti-DENV Activity at 1 uM (SNB-19 cells) (dengue virus): Yes; Anti-DENV Activity at 10 uM (SNB-19 cells) (dengue virus): Yes
13 | O=C1N[C@@H]2C(=C[C@H](O)[C@@H](O)[C@H]2O)c2cc3c(c(O)c21)OCO3 [NCGC00357393-02, (2S,3R,4S,4aR)-2,3,4,7-tetrahydroxy-3,4,4a,5-tetrahydro-[1,3]dioxolo[4,5-j] phenanthridin-6(2H)-one] | – | – | – | Anti-DENV Activity at 1 uM (SNB-19 cells) (dengue virus; 1 uM): Yes; Anti-DENV Activity at 10 uM (SNB-19 cells) (dengue virus; 10 uM): Yes; IC50 (Zika virus): 0.000674 µM
14 | CC[C@H](C)[C@@H]([C@@H](CC(=O)N1CCC[C@H]1[C@H](OC)[C@@H](C)C(=O)N[C@@H](Cc1ccccc1)c1nccs1)OC)N(C)C(=O)[C@@H](NC(=O)[C@H](C(C)C)N(C)C)C(C)C [NCGC00378623-01, (S)-2-((S)-2-(dimethylamino)-3-methylbutanamido)-N-((3R,4S,5S)-3-methoxy-1-((S)-2-((1R,2R)-1-methoxy-2-methyl-3-oxo-3-(((S)-2-phenyl-1-(thiazol-2-yl)ethyl)amino)propyl)pyrrolidin-1-yl)-5-methyl-1-oxoheptan-4-yl)-N,3-dimethylbutanamide] | No | No | – | –
15 | CC(C)(C)c1ccc(C(=O)Nc2ccc3c(c2)CCCN3C(=O)c2cccs2)cc1 [NCGC00131231-01, 4-(tert-butyl)-N-(1-(thiophene-2-carbonyl)-1,2,3,4-tetrahydroquinolin-6-yl)benzamide] | No | No | 7.6 µM | –
16 | COc1ccccc1-c1nnc2sc(-c3ccc(N(C)C)cc3)nn12 [NCGC00071621-03, 4-(3-(2-methoxyphenyl)-[1,2,4]triazolo[3,4-b][1,3,4]thiadiazol-6-yl)-N,N-dimethylaniline] | – | – | – | Anti-DENV Activity at 1 uM (SNB-19 cells) (dengue virus; 1 uM): No; Anti-DENV Activity at 10 uM (SNB-19 cells) (dengue virus; 10 uM): No; IC50 (Zika virus; Zika virus, Vero): > 30 µM
17 | CCCOc1ccc2nc(NC(=O)OC)[nH]c2c1 [NCGC00018238-09, methyl (6-propoxy-1H-benzo[d]imidazol-2 - yl)carbamate] | No | No | 0.000233 µM | –
18 | CCOC(=O)c1ccc(N2C(=O)c3[nH]nc(-c4ccc(OC)cc4)c3C2c2ccc(C)cc2)cc1 (centres unmarked) [NCGC00108525-01, ethyl 4-(3-(4-methoxyphenyl)-6-oxo-4-(p-tolyl)-4,6-dihydropyrrolo[3,4-c]pyrazol-5(1H)-yl)benzoate] | No | Yes | – | IC50 (Zika virus; Zika virus, Vero): 0.137 µM
19 | CCOc1ccc(N2C(=O)c3[nH]nc(-c4cccs4)c3C2c2cccc(F)c2)cc1 (centres unmarked) [NCGC00102779-01, 5-(4-ethoxyphenyl)-4-(3-fluorophenyl)-3-(thiophen-2-yl)-4,5-dihydropyrrolo[3,4-c]pyrazol-6(lH)-one] | No | No | 9.24 µM | –
